Measurements from patent US8193175B2, “Ruthenium complexes for treating cancers” (Universite de Strasbourg, priority 2004, dated 2012).

Legend:
[1] = tested on: 2008/CMV and 2008/ATP7B cells; assay: MTT test on 2008/CMV and 2008/ATP7B cells; assay type: cell-based; settings: 48 hrs
Procedure: FIG. 6: The 2008/CMV and 2008/ATP7B cells (contributed by Dr. Howell) were cultivated in plates with 96 wells in DMEM medium with 10% calf serum. At 30% confluence, the cells were treated for 48 hrs with cisplatinum or the various compounds derived from ruthenium in the concentrations indicated (1, 5, 15, 50 μM). The quantity of cells present in the wells was evaluated by an MTT (MTT, Sigma) test. The results obtained were related to the values of the control condition (100% viability). The graphs show an average of 8 points with the typical spacings over one experiment representative of 3 carried out. The thick black line indicates the IC50 for each graph.
One of these mechanisms is the overexpression of the copper export pump (ATP7B) which expels cisplatinum from the cell. It has been shown that this molecule is overexpressed in human tumours and that cell lines which overexpress this molecule are more resistant to cisplatinum and carboplatinum than control lines.
Two cell lines derived from 2008 cells (Katano, Safaei et al. 2003) were studied. One overexpresses the ATP7B pump, and the other only contains the control vector. The cytostatic activity of the cisplatinum and the CDR was tested in these two lines using the MTT test.

TK6 and NH32 cells = assay: Apoptosis by marking with Annexin-V on TK6 and NH32 cells; assay type: cell-based, human; settings: 1.5 μM
Procedure: The toxicity of the organoruthenium complex on the TK6 and NH32 lymphoblastoid cells is measured with Annexin-V—a specific marker of precocious apoptosis. This marking is implemented on cells treated with derivative 11 at 1.5 μM after 0 hrs, 24 hrs, 48 hrs, 72 hrs and 96 hrs. […] Beyond 72 hrs, the apoptosis reaches the maximum limit of 90% and forms a plateau. In the control cells, the apoptosis rate remains less than 10% for the whole of the experiment. The increase over time of the externalisation of the anionic phospholipids is similar in the two cell lines, but the TK6 cells enter into apoptosis with a delay of a dozen hours on their p53-deficient variants. The NH32 line reaches the limit formed by the 90% plateau earlier than the TK6 cells. The p53 protein seems to slow down activation of the precocious signs of apoptosis induced by the Ru complexes.

[2] = Preliminary toxicity experiment on healthy SWISS mice; assay type: in vivo; settings: small number of healthy SWISS mice
RDM4 [3] = assay: DNA fragmentation by marking with propidium iodure on RDM4; assay type: cell-based, mouse
From the text: A second specific marking of apoptosis is the fragmentation of DNA between the nucleosomes. The fragmented DNA is located in the apoptotic bodies in the terminal phase of apoptosis. This DNA is hypodiploid and so less in quantity than that present in normal cells. It can be quantified by flux cytometry after permeabilisation of the cell membranes and marking with PI. The quantity of DNA in a normal cell is 2n in the G0/G1 phase and 4n in the G2 phase. Therefore, the sub-G0 DNA in a quantity of less than 2n has a weaker fluorescence intensity.
This phenomenon tends to diminish after 48 hrs of treatment. On the other hand, when the cells are treated with 45 μM, the formation of hypodiploid particles, visualised by the sub-G0 DNA content, is less than 10% at 24 hrs and exceeds 50% at 48 hrs such as to reach 60% at 72 hrs. […] The quantity of hypodiploid particles in the control cells remains less than 4% over this same period.

RDM4 [4] = assay: Apoptosis by marking with Annexin-V on RDM4; assay type: cell-based, mouse
Procedure: Cell death is measured by a first specific marking of the apoptosis. The externalisation of the anionic phospholipids, normally located on the inner layer of the plasmic membrane, is one of the precocious markers of apoptosis (Martin et al, 1996). Annexin-V is a protein which fixes specifically onto the phosphatidylserines in the presence of calcium. When Annexin-V is coupled to a fluorochrome, it makes it possible to quantify the apoptotic cells by flux cytometry.
The control cells are treated with the equivalent volume of solvent (ethanol). […] After 72 hrs, the apoptosis rate is still as low as that of the control cells. On the other hand, with treatment at 45 μM, this rate already reaches 70% at 24 hrs and exceeds 99% after 48 hrs—a sign of significant apoptosis induction.

Row | Molecule | sensitivity of the line expressing ATP7B relative to the control line (MTT) [1] | externalisation of the phosphatidylserines (Annexin-V) (TK6 and NH32 cells; 48 hrs) | externalisation of the phosphatidylserines (Annexin-V) (TK6 and NH32 cells; 72 hrs of continuous treatment) | apparent toxicity [2] | cell cycle distribution (propidium iodure) (RDM4 [3]; 15 μM, first two days) | hypodiploid particles (sub-G0 DNA content) (RDM4 [3]; 45 μM, 72 hrs) | apoptosis rate (Annexin-V) (RDM4 [4]; 15 μM, up to 72 hrs) | apoptosis rate (Annexin-V) (RDM4 [4]; 45 μM, 24 hrs)
1 | N.N.[Cl][Pt][Cl] [Cisplatinum, reference compound] | significantly less sensitive | – | – | – | – | – | – | –
2 | [Ru(C6H4-2-C5H4N)(phen)(NCMe)2]PF6 [Compound 11] | – | exceeds 50% | 90% | lack of apparent toxicity | accumulation in the G0/G1 phase | 60% | does not shown any effect | 70%
